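48-hour exposure; five concentrations; linearly interpolated endpoints. GI50 is the concentration that inhibits growth by half.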 The source made the active and inactive calls. Cut-off read from the data, not from the text of the source: active = GI50 up to about 1.1 µM and inactive = higher.
Tests used:
Test in all cases: growth of human tumour cells (NCI), 48 h
RXF 631 = system: RXF 631
EKVX = system: EKVX
RPMI-8226 = system: RPMI-8226
SK-MEL-2 = system: SK-MEL-2
OVCAR-8 = system: OVCAR-8
KM12 = system: KM12
OVCAR-5 = system: OVCAR-5
DLD-1 = system: DLD-1
OVCAR-4 = system: OVCAR-4
HT-29 = system: HT-29
Malme-3M = system: Malme-3M
SNB-78 = system: SNB-78
SK-MEL-28 = system: SK-MEL-28
COLO 205 = system: COLO 205
NCI-H460 = system: NCI-H460
SK-MEL-5 = system: SK-MEL-5
MOLT-4 = system: MOLT-4
NCI-H226 = system: NCI-H226
786-0 = system: 786-0
ACHN = system: ACHN
UACC-62 = system: UACC-62
TK-10 = system: TK-10
M14 = system: M14
LOX IMVI = system: LOX IMVI
SN12C = system: SN12C
UACC-257 = system: UACC-257
HCT-15 = system: HCT-15
SNB-75 = system: SNB-75
CCRF-CEM = system: CCRF-CEM
KM-20L2 = system: KM-20L2
HOP-92 = system: HOP-92
DMS-114 = system: DMS-114
SF-268 = system: SF-268
HCT-116 = system: HCT-116
UO-31 = system: UO-31
HL-60 = system: HL-60
SNB-19 = system: SNB-19
IGROV-1 = system: IGROV-1
SK-OV-3 = system: SK-OV-3
HOP-62 = system: HOP-62
M19-MEL = system: M19-MEL
CAKI-1 = system: CAKI-1
HOP-18 = system: HOP-18
SF-295 = system: SF-295
A549 = system: A549
RXF 393 = system: RXF 393
OVCAR-3 = system: OVCAR-3
K562 = system: K562
NCI-H23 = system: NCI-H23
HCC 2998 = system: HCC 2998
U-251 = system: U-251
A498 = system: A498
SF-539 = system: SF-539
SW-620 = system: SW-620
LXFL 529 = system: LXFL 529

COC(=O)C(C(=O)C(=O)Nc1cccc(O)c1)c1nc2ccc(Cl)cc2nc1O (stereo not given)
GI50 (RXF 631): > 100 µM (inactive)
GI50 (EKVX): 48.9 µM (inactive)
GI50 (RPMI-8226): > 100 µM (inactive)
GI50 (SK-MEL-2): > 100 µM (inactive)
GI50 (OVCAR-8): > 100 µM (inactive)
GI50 (KM12): > 100 µM (inactive)
GI50 (OVCAR-5): > 100 µM (inactive)
GI50 (DLD-1): > 100 µM (inactive)
GI50 (OVCAR-4): > 100 µM (inactive)
GI50 (HT-29): > 100 µM (inactive)
GI50 (Malme-3M): > 100 µM (inactive)
GI50 (SNB-78): > 100 µM (inactive)
GI50 (SK-MEL-28): > 100 µM (inactive)
GI50 (COLO 205): > 100 µM (inactive)
GI50 (NCI-H460): > 100 µM (inactive)
GI50 (SK-MEL-5): > 100 µM (inactive)
GI50 (MOLT-4): > 100 µM (inactive)
GI50 (NCI-H226): 71.6 µM (inactive)
GI50 (786-0): > 100 µM (inactive)
GI50 (ACHN): > 100 µM (inactive)
GI50 (UACC-62): > 100 µM (inactive)
GI50 (TK-10): > 100 µM (inactive)
GI50 (M14): > 100 µM (inactive)
GI50 (LOX IMVI): > 100 µM (inactive)
GI50 (SN12C): > 100 µM (inactive)
GI50 (UACC-257): > 100 µM (inactive)
GI50 (HCT-15): > 100 µM
GI50 (SNB-75): 84.1 µM (inactive)
GI50 (CCRF-CEM): > 100 µM (inactive)
GI50 (KM-20L2): > 100 µM (inactive)
GI50 (HOP-92): 59 µM (inactive)
GI50 (DMS-114): > 100 µM (inactive)
GI50 (SF-268): > 100 µM (inactive)
GI50 (HCT-116): > 100 µM (inactive)
GI50 (UO-31): > 100 µM (inactive)
GI50 (HL-60): > 100 µM (inactive)
GI50 (SNB-19): > 100 µM (inactive)
GI50 (IGROV-1): > 100 µM (inactive)
GI50 (SK-OV-3): > 100 µM (inactive)
GI50 (HOP-62): > 100 µM (inactive)
GI50 (M19-MEL): > 100 µM (inactive)
GI50 (CAKI-1): > 100 µM (inactive)
GI50 (HOP-18): 98.9 µM (inactive)
GI50 (SF-295): > 100 µM (inactive)
GI50 (A549): > 100 µM (inactive)
GI50 (RXF 393): 74.3 µM (inactive)
GI50 (OVCAR-3): > 100 µM (inactive)
GI50 (K562): > 100 µM (inactive)
GI50 (NCI-H23): > 100 µM (inactive)
GI50 (HCC 2998): > 100 µM (inactive)
GI50 (U-251): > 100 µM (inactive)
GI50 (A498): > 100 µM (inactive)
GI50 (SF-539): > 100 µM (inactive)
GI50 (SW-620): > 100 µM (inactive)
GI50 (LXFL 529): > 100 µM (inactive)

Reference: ChEMBL document CHEMBL1201862, “PubChem BioAssay data set” (2004)
